In patent US20160206642A1, “CLOCK GENE EXPRESSION LEVEL REGULATOR” (SUNTORY HOLDINGS LIMITED, priority 2013, published 2016):

What was measured:
Bmal1 clock gene [1] = experiment: Bmal1 clock gene expression in HepG2 cells by qPCR; format: cell-based, human; conditions: HepG2, 50 μg/mL, eight hours after addition, DMSO control
Procedure: (§1) Cultured cells (human liver cancer-derived cell line HepG2) were seeded at 2.5×10^3 cells/cm^2 in a T-75 flask (BD Falcon™), and medium replacement (RPMI1640, 10% FBS) was performed every three days. The cells reaching 80% confluence were passaged at a concentration of 4.2×10^4 cells/mL in a 6-well plate (BD Falcon™), and in order to entrain the phases of the circadian rhythms of the cells, the medium was replaced with a low-serum medium (RPMI1640, 2% FBS) after three days. Three days after the replacement with a low-serum medium, the cells were subjected to testing. A solution of the test substance in DMSO (50 μg/μL) was prepared and added to the 6-well plate to give a final concentration of the test substance of 50 μg/mL. As a control, DMSO was added to the 6-well plate (to give a final concentration of 0.1%).
(§2) Eight hours after the addition of the test substance, the cells were harvested, and mRNA was extracted according to a conventional method. The extracted mRNA was used to analyze the expression levels of the Bmal1 and Per1 clock genes by qPCR (with Applied Biosystems 7900HT Fast Real-Time PCR System).

Per1 clock gene [2] = experiment: Per1 clock gene expression in HepG2 cells by qPCR; format: cell-based, human; conditions: HepG2, 50 μg/mL, eight hours after addition, DMSO control
Procedure: as §1, §2

Per1 clock gene [3] = experiment: Per1 clock gene expression in liver of SD rats by quantitative PCR; format: in vivo; conditions: 200 mg/5 mL/kg orally once daily for 5 days, sampled four hours after the last treatment
Procedure: (§3) Seven-week-old male SD rats were habituated for one week and then classified into a test food group (isolated oleuropein group) and a control group (each group consisting of 6 animals). Next, the isolated oleuropein was dissolved in distilled water (produced by Otsuka Pharmaceutical Co., Ltd.), and the solution was orally administered forcibly to the test food group at a dose of 200 mg/5 mL/kg once daily for 5 days. The control food group was orally fed forcibly with distilled water (produced by Otsuka Pharmaceutical Co., Ltd.) at a dose of 5 mL/kg once daily for 5 days. Four hours after the last treatment, liver sampling was done.
(§4) From the liver samples collected, total RNA was extracted according to a conventional method, and used to analyze the expression levels of the Bmal1 and Per1 clock genes by quantitative PCR (with Applied Biosystems 7900HT Fast Real-Time PCR System).

Bmal1 clock gene [4] = experiment: Bmal1 clock gene expression in liver of SD rats by quantitative PCR; format: in vivo; conditions: 200 mg/5 mL/kg orally once daily for 5 days, sampled four hours after the last treatment
Procedure: as §3, §4

Row | Structure (SMILES) | Bmal1 expression (Bmal1 clock gene [1]) | Per1 expression (Per1 clock gene [2]) | Per1 expression as compared to the control group (Per1 clock gene [3]) | Bmal1 expression as compared to the control group (Bmal1 clock gene [4])
1 | COC(=O)C1=CO[C@@H](C)[C@@H](C=O)C1CC(=O)OCCc1ccc(O)c(O)c1 (mixture of isomers) [3,4-DHPEA-EA, 3,4-Dihydroxyphenylethanol-elenolic acid] | reduced | increasing | – | –
2 | C/C=C1/[C@H](O[C@@H]2O[C@H](CO)[C@@H](O)[C@H](O)[C@H]2O)OC=C(C(=O)OC)[C@H]1CC(=O)OCCc1ccc(O)c(O)c1 [isolated oleuropein, Oleuropein] | – | – | significant increase | significant decrease
